Reference: US11246929B2, “Combination of a protein kinase inhibitor and an additional chemotherapeutic agent” (Merck Patent GmbH, priority 2016, dated 2022)
Each block holds one molecule with its values, some of them ahead of it.

Assays:
NCI-H460 xenograft = type: in vivo
[1] = system: LoVo colon carcinoma xenografts; assay: Single agent efficacy, ATM pathway deficient LoVo xenograft; type: in vivo, mouse
Source text: We tested the effect of Compound 1 on the growth of established LoVo colon carcinoma xenografts that are known to be deficient in ATM pathway function due to mutation in the MRE11 protein.

MO59K (DNA-PK wild type) = assay: AlamarBlue viability assay; type: cell-based, human
152OS = assay: SRB growth inhibition, 93 cell lines panel; type: cell-based; details: bone, read-out: GI50 of etoposide (±Compound 1)
Experimental: (§1) 90 μl of cells, after a 48-hour pre-growth period, were treated by mixing with 10 μl of the compound-containing media (resulting in a final DMSO concentration of 0.1%).
(§2) This is the drug concentration causing a 50% reduction compared to the net protein increase in control cells during the drug incubation period. In other words, G150 is IC50 corrected for time zero. […] TGI was calculated from Ti=Tz. […] It was calculated as 100×[(Ti−Tz)/Tz]=−50.

786O = assay: SRB growth inhibition, 93 cell lines panel; type: cell-based; details: Homo sapiens, 786-0, kidney, read-out: GI50 of etoposide (±Compound 1)
Experimental: as §1, §2

A2780 = assay: SRB growth inhibition, 93 cell lines panel; type: cell-based; details: Homo sapiens; A2780, ovary; read-out: GI50 of etoposide (±Compound 1)
Experimental: as §1, §2

A673 = assay: SRB growth inhibition, 93 cell lines panel; type: cell-based; details: Homo sapiens; A673, muscle; read-out: GI50 of etoposide (±Compound 1)
Experimental: as §1, §2

BT20 = assay: SRB growth inhibition, 93 cell lines panel; type: cell-based; details: Homo sapiens, BT-20; BT20, breast; read-out: GI50 of etoposide (±Compound 1)
Experimental: as §1, §2

CALU6 = assay: SRB growth inhibition, 93 cell lines panel; type: cell-based; details: Homo sapiens, Calu-6; CALU6, lung; read-out: GI50 of etoposide (±Compound 1)
Experimental: as §1, §2

CASKI = assay: SRB growth inhibition, 93 cell lines panel; type: cell-based; details: Homo sapiens, Ca-Ski, cervix, read-out: GI50 of etoposide (±Compound 1)
Experimental: as §1, §2

EJ28 = assay: SRB growth inhibition, 93 cell lines panel; type: cell-based; details: Homo sapiens, EJ-28; EJ28, bladder; read-out: GI50 of etoposide (±Compound 1)
Experimental: as §1, §2

HS729 = assay: SRB growth inhibition, 93 cell lines panel; type: cell-based; details: HS729, muscle; read-out: GI50 of etoposide (±Compound 1)
Experimental: as §1, §2

IMR90 = assay: SRB growth inhibition, 93 cell lines panel; type: cell-based; details: Homo sapiens, IMR-90; IMR90, lung; read-out: GI50 of etoposide (±Compound 1)
Experimental: as §1, §2

JIMT1 = assay: SRB growth inhibition, 93 cell lines panel; type: cell-based; details: Homo sapiens, JIMT-1; JIMT1, breast; read-out: GI50 of etoposide (±Compound 1)
Experimental: as §1, §2

K-562 = assay: SRB growth inhibition, 93 cell lines panel; type: cell-based; details: Homo sapiens, K562; K-562, hematological; read-out: GI50 of etoposide (±Compound 1)
Experimental: as §1, §2

LOVO = assay: SRB growth inhibition, 93 cell lines panel; type: cell-based; details: Homo sapiens, colon, read-out: GI50 of etoposide (±Compound 1)
Experimental: as §1, §2

MDAMB436 = assay: SRB growth inhibition, 93 cell lines panel; type: cell-based; details: Homo sapiens, MDA-MB-436; MDAMB436, breast; read-out: GI50 of etoposide (±Compound 1)
Experimental: as §1, §2

MIAPACA2 = assay: SRB growth inhibition, 93 cell lines panel; type: cell-based; details: Homo sapiens, MIA PaCa-2; MIAPACA2, pancreas; read-out: GI50 of etoposide (±Compound 1)
Experimental: as §1, §2

MV4-11 = assay: SRB growth inhibition, 93 cell lines panel; type: cell-based; details: Homo sapiens; MV4-11, hematological; read-out: GI50 of etoposide (±Compound 1)
Experimental: as §1, §2

PBMC = assay: SRB growth inhibition, 93 cell lines panel; type: cell-based; details: hematological, read-out: GI50 of etoposide (±Compound 1)
Experimental: as §1, §2

RAMOS = assay: SRB growth inhibition, 93 cell lines panel; type: cell-based; details: Homo sapiens, hematological, read-out: GI50 of etoposide (±Compound 1)
Experimental: as §1, §2

SAOS2 = assay: SRB growth inhibition, 93 cell lines panel; type: cell-based; details: Homo sapiens, SAOS-2; SAOS2, bone; read-out: GI50 of etoposide (±Compound 1)
Experimental: as §1, §2

SKMEL28 = assay: SRB growth inhibition, 93 cell lines panel; type: cell-based; details: Homo sapiens, SK-MEL-28; SKMEL28, skin; read-out: GI50 of etoposide (±Compound 1)
Experimental: as §1, §2

SU-DHL-6 = assay: SRB growth inhibition, 93 cell lines panel; type: cell-based; details: Homo sapiens; SU-DHL-6, hematological; read-out: GI50 of etoposide (±Compound 1)
Experimental: as §1, §2

TE671 = assay: SRB growth inhibition, 93 cell lines panel; type: cell-based; details: Homo sapiens, TE-671; TE671, muscle; read-out: GI50 of etoposide (±Compound 1)
Experimental: as §1, §2

THP-1 = assay: SRB growth inhibition, 93 cell lines panel; type: cell-based; details: Homo sapiens; THP-1, hematological; read-out: GI50 of etoposide (±Compound 1)
Experimental: as §1, §2

lung cancer cell lines = assay: cells; details: read-out: Median etoposide concentration needed to reach GI50
HCT15 = assay: cells; details: Homo sapiens, HCT-15, read-out: GI50 of etoposide (±Compound 1)
T24 = assay: cells; details: Homo sapiens, T-24, read-out: GI50 of etoposide (±Compound 1)
SF268 = assay: SRB growth inhibition, 93 cell lines panel; details: Homo sapiens, SF-268, read-out: GI50 of etoposide (±Compound 1)

SMILES: COc1ccc([C@@H](O)c2cc(-c3ncnc4cc(N5CCOCC5)ccc34)c(F)cc2Cl)nn1 [Compound 1, (S)-[2-chloro-4-fluoro-5-(7-morpholin-4-yl-quinazolin-4-yl)-phenyl]-(6-methoxy-pyridazin-3-yl)-methanol]
tumor response (NCI-H460 xenograft; 6 weeks IR (60 Gy total) + Compound 1 25 and 50 mg/kg po): regressed during the treatment and observation period up to approximately day 90
tumor volume vs starting volume (NCI-H460 xenograft; 6 weeks IR + 50 mg/kg, 42 days of treatment plus 68 days observation): did not exceed their starting volume
tolerability (NCI-H460 xenograft; 6 weeks IR + Compound 1): generally well tolerated
tumor growth suppression ([1]; 150 mg/kg, three weeks): nearly complete growth suppression
tumor growth inhibition ([1]; three week administration): dose-dependent tumor growth inhibition
inhibition of viability, combination with etoposide (MO59K (DNA-PK wild type)): enhanced inhibition of viability
potentiation of etoposide, Compound 1 in comparison to VX-984 (MO59K (DNA-PK wild type); compound incubation for 72 h): compares favorably

GI50 (A2780): 62 nM
GI50 (BT20): 73 nM
GI50 (CALU6): 3650 nM
GI50 (K-562): 277 nM
GI50 (LOVO): 606 nM
GI50 (MDAMB436): 378 nM
GI50 (MIAPACA2): 689 nM
GI50 (MV4-11): 38 nM
GI50 (RAMOS): 204 nM
GI50 (SKMEL28): 1890 nM
GI50 (SU-DHL-6): 665 nM
GI50 (THP-1): 110 nM
GI50 (lung cancer cell lines): 320 nM
GI50 (HCT15): 1470 nM
GI50 (T24): 2530 nM
SMILES: COc1cc([C@@H]2c3cc4c(cc3[C@@H](O[C@@H]3O[C@@H]5CO[C@@H](C)O[C@H]5[C@H](O)[C@H]3O)[C@H]3COC(=O)[C@H]23)OCO4)cc(OC)c1O [Etoposide]
GI50 (152OS): 1080 nM
GI50 (786O): 928 nM
GI50 (A673): 1080 nM
GI50 (CASKI): 1450 nM
GI50 (EJ28): 440 nM
GI50 (HS729): 730 nM
GI50 (IMR90): 704 nM
GI50 (JIMT1): 17700 nM
GI50 (PBMC): > 10000 nM
GI50 (SAOS2): 1460 nM
GI50 (TE671): 1150 nM
GI50 (SF268): 1970 nM
